# PubChem BioAssay AID2060502 (Molecular Pharmacology Branch, DTP, NCI, 2025)
# “And” between values parts separate entries of the source, which are not always exact repeats. Identical values can stand only once.
# Tested on: 885724-159-R-J1-PDC complex spheroid viability
# Test: Anticancer human tumor 885724-159-R-J1-PDC patient-derived pancreatic adenocarcinoma cell line growth inhibition [GQUAD]
# Conditions: for viability, T/C: stronger effect = lower value
# Source text: DNA G-quadruplex Stabilizer Agents in Combinations in Complex Spheroids
# A high-throughput screen of multi-cell type tumor spheroids was designed to identify active combinations of DNA G-quadruplex stabilizer agents and targeted small molecules. Complex spheroids include a stromal component modeled by human endothelial cells (HUVEC) and fibroblasts modeled by human mesenchymal stem cells (MSCs). The concentration ranges selected for each drug and investigational agent were based upon clinically achievable concentrations if the clinical Cmax of the agent was known.
# Compounds. The drugs and investigational agents: pidnarulex (CX-5461; NSC782164), APTO-253 (NSC789042), BRACO-19 (NSC847499), peposertib (NSC802822), ceralasertib (NSC780249), elimusertib (NSC800525), camonsertib (NSC841442), AZD-1390 (NSC803789), olaparib (NSC753686), talazoparib (NSC767125), ART-558 (NSC835418), sotorasib (NSC818433), MRTX-1133 (NSC836407), SN-38 (NSC673596), topotecan (NSC609699), etoposide (NSC141540), doxorubicin (NSC123127), gemcitabine (NSC613327), 5-fluorouracil (NSC19893), paclitaxel (NSC125973), vemurafenib (NSC761431), panobinostat (NSC761190), R-306465 (JNJ-16241199; NSC773264), adavosertib (NSC754352), TP-3654 (NSC805149), carboplatin (NSC241240), KSQ-4279 (NSC840948), and staurosporine (NSC755774) were obtained from the National Cancer Institute (NCI) Developmental Therapeutics Program Chemical Repository (34). The FDA-approved anticancer drug set is available from the NCI Developmental Therapeutics Program. […] The stock solutions were prepared in dimethyl sulfoxide (DMSO, Sigma-Aldrich, St. Louis, MO, cat. D2650) at 800-fold the tested concentration and stored at -70 degrees C prior to their use. All drugs and investigational agents were tested over a range starting from a high concentration at or near the clinical Cmax and decreasing in half-log increments. If the clinical Cmax for an agent had not been determined, the highest concentration tested was 10 microM.
# 2.3 Cell Culture. All cells were maintained in an incubator at 37 degrees C and 5% CO2 with 95% humidity. The PDC lines were cultured according to standard operating procedures established by the NCI PDMR. All PDCs were thawed and cultured in Matrigel-coated flasks prepared with a working solution of 1X Ham's F-12 nutrient mix, without supplementation (Invitrogen, cat. 11765054), 100 U/mL penicillin-streptomycin (Invitrogen, cat. 15140122), and 2.5% Matrigel (Corning Inc., cat. 354248) for the first three passages. The 857933-349-R-J2-PDC line was cultured in 6C/Colon 1B media, which includes advanced DMEM/F-12 (Thermo Fisher Scientific, cat. 12634028), 10 mM HEPES (Thermo Fisher Scientific, cat. 15630080), 1X GlutaMAX supplement (Thermo Fisher Scientific, cat. 35050061), 0.1 mg/mL primocin (InvivoGen, cat. ant-pm-2), 10% defined fetal bovine serum, heat inactivated (HyClone Laboratories Inc., cat. SH30070.03HI), 50% L-WRN conditioned media (ATCC, cat. CRL-3276), 1.25 mM N-Acetyl-L-cysteine (Sigma-Aldrich, cat. A9165), 10 mM nicotinamide (Sigma-Aldrich, cat. N0636), 1X B-27 supplement (Thermo Fisher Scientific, cat. 17504044), 1X N-2 supplement (Thermo Fisher Scientific, cat. 17502048), 10 microM Y-27632 dihydrochloride (Tocris Bioscience, cat. 1254), and 50 ng/mL human EGF recombinant protein (Thermo Fisher Scientific, cat. PHG0311). The 485176-168-R4-J1-PDC line was cultured in Panc media, which includes all 6C/Colon 1B media components plus 100 ng/mL human FGF-10 (Thermo Fisher Scientific, cat. 100-26), 500 nM SB-431542 (Selleckchem, cat. S1067), and gastrin (Tocris, cat. 3006).
# […]
# 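Also: spheroids exposed to agents for seven days before readout.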
# 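For viability, T/C in this document: percent of vehicle control viability where 100% = DMSO wells.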
structure (smiles),measurement,setting,value
CC(C)n1c(=O)n(C)c2cnc3cc(F)c(-c4ccc(OCCCN5CCCCC5)nc4)cc3c21,"viability, T/C",compound 0.0316 µM,102% (2×) and 106%
same,"viability, T/C",compound 0.1 µM,100% and 103% and 96.6%
same,"viability, T/C",compound 0.316 µM,83.3% and 94.1% and 102%
same,"viability, T/C",compound 1 µM,107% and 108% and 86.7%
same,"viability, T/C",compound 3.16 µM,95.5% and 86.1% and 102%
same,"viability, T/C",compound 10 µM,87.7% and 68.2% and 77.4%
same,IC50,curve of compound,> 10 µM
COc1cccc2c1C(=O)c1c(O)c3c(c(O)c1C2=O)CC(O)(C(=O)CO)CC3OC1CC(N)C(O)C(C)O1 (stereo unspecified),"viability, T/C",compound 0.0316 µM,92.3% and 103% and 104%
same,"viability, T/C",compound 0.1 µM,92.3% and 81.3% and 102%
same,"viability, T/C",compound 0.316 µM,80.3% and 79.5% and 78.9%
same,"viability, T/C",compound 1 µM,84.3% and 81.4% and 81.6%
same,"viability, T/C",compound 3.16 µM,38.4% and 40.1% and 34.5%
same,"viability, T/C",compound 10 µM,4.02% and 1.94% and 3.83%
same,IC50,curve of compound,2.35 µM and 2.39 µM and 2.14 µM
Cc1[nH]c2ccc(F)cc2c1-c1nc2c3cccnc3c3ncccc3c2[nH]1,"viability, T/C",compound 0.0316 µM,100% [middle of 12 runs]
same,"viability, T/C",compound 0.316 µM,92.7% [middle of 12 runs]
same,"viability, T/C",compound 1 µM,76.8% [middle of 12 runs]
same,"viability, T/C",compound 10 µM,77.7% [middle of 12 runs]
same,IC50,"compound alone, run of 02/20/2024",> 10 µM
same,IC50,"compound alone, run of 02/26/2024",> 10 µM
COc1ccc([C@@H](O)c2cc(-c3ncnc4cc(N5CCOCC5)ccc34)c(F)cc2Cl)nn1,"viability, T/C",compound 0.0316 µM,97.9% and 93.6% and 102%
same,"viability, T/C",compound 0.1 µM,99.9% and 83.8% and 90.8%
same,"viability, T/C",compound 0.316 µM,85.5% and 98.2% and 81.1%
same,"viability, T/C",compound 1 µM,87.8% and 74.6% and 83.2%
same,"viability, T/C",compound 3.16 µM,64.8% and 59.1% and 64.2%
same,"viability, T/C",compound 10 µM,39.9% and 41.8% and 37.1%
same,IC50,curve of compound,6.4 µM and 5.56 µM and 5.78 µM
C#Cc1c(F)ccc2cc(O)cc(-c3ncc4c(N5CC6CCC(C5)N6)nc(OCC56CCCN5CC(F)C6)nc4c3F)c12 (stereo unspecified),"viability, T/C",compound 0.0316 µM,97.3% and 99.6% and 91.8%
same,"viability, T/C",compound 0.1 µM,101% and 92.4% and 93%
same,"viability, T/C",compound 0.316 µM,89.8% and 94.6% and 104%
same,"viability, T/C",compound 1 µM,90.2% and 88.2% and 81.5%
same,"viability, T/C",compound 3.16 µM,53.6% and 55.8% and 58.6%
same,"viability, T/C",compound 10 µM,30% and 25.7% and 22.7%
same,IC50,curve of compound,3.8 µM and 3.95 µM and 4.07 µM
O=c1[nH]cc(F)c(=O)[nH]1 + Cc1[nH]c2ccc(F)cc2c1-c1nc2c3cccnc3c3ncccc3c2[nH]1,IC50,"curve of first compound, second compound 0.0316 µM",> 10 µM
same,IC50,"curve of first compound, second compound 0.1 µM",> 10 µM
same,IC50,"curve of first compound, second compound 0.316 µM",> 10 µM
same,IC50,"curve of first compound, second compound 1 µM",> 10 µM
same,IC50,"curve of first compound, second compound 3.16 µM",< 0.0316 µM
same,IC50,"curve of first compound, second compound 10 µM",> 10 µM
same,"viability, T/C","second compound 0.0316 µM, first compound 0.0316 µM",101%
same,"viability, T/C","second compound 0.0316 µM, first compound 0.1 µM",103%
same,"viability, T/C","second compound 0.0316 µM, first compound 0.316 µM",98.5%
same,"viability, T/C","second compound 0.0316 µM, first compound 1 µM",95.9%
same,"viability, T/C","second compound 0.0316 µM, first compound 3.16 µM",97.1%
same,"viability, T/C","second compound 0.0316 µM, first compound 10 µM",86%
same,"viability, T/C","second compound 0.1 µM, first compound 0.0316 µM",103%
same,"viability, T/C","second compound 0.1 µM, first compound 0.1 µM",89.3%
same,"viability, T/C","second compound 0.1 µM, first compound 0.316 µM",91%
same,"viability, T/C","second compound 0.1 µM, first compound 1 µM",93.5%
same,"viability, T/C","second compound 0.1 µM, first compound 3.16 µM",93.7%
same,"viability, T/C","second compound 0.1 µM, first compound 10 µM",86.3%
same,"viability, T/C","second compound 0.316 µM, first compound 0.0316 µM",107%
same,"viability, T/C","second compound 0.316 µM, first compound 0.1 µM",94.7%
same,"viability, T/C","second compound 0.316 µM, first compound 0.316 µM",81.6%
same,"viability, T/C","second compound 0.316 µM, first compound 1 µM",82%
same,"viability, T/C","second compound 0.316 µM, first compound 3.16 µM",97.5%
same,"viability, T/C","second compound 0.316 µM, first compound 10 µM",95.6%
same,"viability, T/C","second compound 1 µM, first compound 0.0316 µM",76.4%
same,"viability, T/C","second compound 1 µM, first compound 0.1 µM",74.7%
same,"viability, T/C","second compound 1 µM, first compound 0.316 µM",75%
same,"viability, T/C","second compound 1 µM, first compound 1 µM",70.7%
same,"viability, T/C","second compound 1 µM, first compound 3.16 µM",68.3%
same,"viability, T/C","second compound 1 µM, first compound 10 µM",69.9%
same,"viability, T/C","second compound 3.16 µM, first compound 0.0316 µM",39.2%
same,"viability, T/C","second compound 3.16 µM, first compound 0.1 µM",42.6%
same,"viability, T/C","second compound 3.16 µM, first compound 0.316 µM",41.3%
same,"viability, T/C","second compound 3.16 µM, first compound 1 µM",41.6%
same,"viability, T/C","second compound 3.16 µM, first compound 3.16 µM",45.1%
same,"viability, T/C","second compound 3.16 µM, first compound 10 µM",42.3%
same,"viability, T/C","second compound 10 µM, first compound 0.0316 µM",66.1%
same,"viability, T/C","second compound 10 µM, first compound 0.1 µM",77.2%
same,"viability, T/C","second compound 10 µM, first compound 0.316 µM",70.3%
same,"viability, T/C","second compound 10 µM, first compound 1 µM",71.3%
same,"viability, T/C","second compound 10 µM, first compound 3.16 µM",81.3%
same,"viability, T/C","second compound 10 µM, first compound 10 µM",62.9%
